Data published in patent publication US3974140A, “Ureidoacetamido-penicillins” (Bayer Aktiengesellschaft, priority 1970, dated 1976).
Values joined by “and” are separate entries in the source; they are usually repeats but may differ in a detail not shown here. Equal entries are not always repeated.

How the values were obtained:
Assay in all cases: MIC, liquid medium test tube series dilution test
Proteus vulg. 1017 = type: cell-based, Proteus vulgaris; conditions: Proteus vulg. 1017, 24 hours, 37°C
How it was run: (§1)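 Tube dilution, liquid complete medium, 37°C/24 h; MIC = non-turbid tube; units/ml.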

Proteus vulg. 3400 = type: cell-based, Proteus vulgaris; conditions: Proteus vulg. 3400, 24 hours, 37°C
How it was run: as §1

Psdm. aerug. Walter = type: cell-based, Pseudomonas aerug.; conditions: 24 hours, 37°C
How it was run: as §1

Psdm. aerug. Bonn = type: cell-based, Pseudomonas aerug.; conditions: 24 hours, 37°C
How it was run: as §1

Staph. aureus 1777 E = type: cell-based, Staphylococcus aureus; conditions: 24 hours, 37°C
How it was run: as §1

Staph. aureus 133 = type: cell-based, Staphylococcus aureus; conditions: Staph. aureus 133, 24 hours, 37°C
How it was run: as §1

Klebsiella 63 = type: cell-based; conditions: Klebsiella 63, 24 hours, 37°C
How it was run: as §1

E. coli A 261 = type: cell-based; conditions: E. coli A 261, 24 hours, 37°C
How it was run: as §1

E. coli 183/58 = type: cell-based; conditions: E. coli 183/58, 24 hours, 37°C
How it was run: as §1

Klebsiella K 10 = type: cell-based; conditions: Klebsiella K 10, 24 hours, 37°C
How it was run: as §1

E. coli C 165 = type: cell-based; conditions: E. coli C 165, 24 hours, 37°C
How it was run: as §1

[1] = tested on: Streptoc. faec. ATCC 9790; type: cell-based; conditions: Strep. faec. (Enterococcus) ATCC 9790, 24 hours, 37°C
How it was run: as §1

E. coli 14 = type: cell-based; conditions: E. coli 14, 24 hours, 37°C
How it was run: as §1

MIC (Proteus vulg. 1017)	MIC (Proteus vulg. 3400)	MIC (Psdm. aerug. Walter)	MIC (Psdm. aerug. Bonn)	MIC (Staph. aureus 1777 E)	MIC (Staph. aureus 133)	MIC (Klebsiella 63)	MIC (E. coli A 261)	MIC (E. coli 183/58)	MIC (Klebsiella K 10)	MIC (E. coli C 165)	MIC [1]	MIC (E. coli 14)	Compound	other results
50 units/ml	100 units/ml	12,5 units/ml	12,5 units/ml	200 units/ml	< 0,78 units/ml	50 units/ml	> 400 units/ml	6,25 units/ml	100 units/ml	25 units/ml	50 units/ml	3,12 units/ml	CC1(C)S[C@@H]2[C@H](NC(=O)C(NC(=O)N3CCNC3=O)c3ccc(Cl)cc3)C(=O)N2[C@H]1C(=O)O (stereo partly drawn) [Example 47, Sodium α-[(imidazolidin-2-on-1-yl)-carbonylamino]-p-chloro benzylpenicillin]	–
25 units/ml	25 units/ml	12,5 units/ml	12,5 units/ml	400 units/ml	< 0,78 units/ml	50 units/ml	400 units/ml	12,5 units/ml	100 units/ml	12,5 units/ml	25 units/ml	3,12 units/ml	CC1(C)S[C@@H]2[C@H](NC(=O)[C@H](NC(=O)N3CCNC3=O)c3ccccc3)C(=O)N2[C@H]1C(=O)O [Example 51, Sodium D(-)-α-[(imidazolidin-2-on-1-yl)-carbonylamino]-benzylpenicillin]	–
6,25 units/ml	12,5 units/ml	12,5 units/ml	6,25 units/ml	200 units/ml	< 0,78 units/ml	25 units/ml	400 units/ml	12,5 units/ml	50 units/ml	6,25 units/ml	12,5 units/ml	3,12 units/ml	CC1(C)S[C@@H]2[C@H](NC(=O)[C@H](NC(=O)N3CCNC3=O)c3ccccc3)C(=O)N2[C@H]1C(=O)O [Example 53, D(-)-α-[(Imidazolidin-2-on-1-yl)-carbonylamino]-benzylpenicillin]	–
200 units/ml	100 units/ml	25 units/ml	12,5 units/ml	200 units/ml	< 0,78 units/ml	100 units/ml	> 400 units/ml	6,25 units/ml	100 units/ml	25 units/ml	50 units/ml	6,25 units/ml	CSc1ccc(C(NC(=O)N2CCNC2=O)C(=O)N[C@@H]2C(=O)N3[C@@H]2SC(C)(C)[C@@H]3C(=O)O)cc1 (stereo partly drawn) [Example 54, Sodium α-[(imidazolidin-2-on-1-yl)-carbonylamino]-4-methylthiobenzylpenicillin]	–
100 units/ml	100 units/ml	25 units/ml	12,5 units/ml	200 units/ml	< 0,78 units/ml	100 units/ml	> 400 units/ml	12,5 units/ml	100 units/ml	25 units/ml	50 units/ml	6,25 units/ml	CSc1ccc(C(NC(=O)N2CCNC2=O)C(=O)N[C@@H]2C(=O)N3[C@@H]2SC(C)(C)[C@@H]3C(=O)O)cc1 (stereo partly drawn) [Example 55, Sodium α-[(imidazolidin-2-on-1-yl)-carbonylamino]-4-methylthiobenzylpenicillin]	–
25 units/ml	25 units/ml	25 units/ml	12.5 units/ml	200 units/ml	< 0.78 units/ml	50 units/ml	> 400 units/ml	6.25 units/ml	100 units/ml	6.25 units/ml	50 units/ml	3.12 units/ml	CCOC(=O)N(C)C(=O)N[C@@H](C(=O)N[C@@H]1C(=O)N2[C@@H]1SC(C)(C)[C@@H]2C(=O)O)c1ccccc1 [Example 61, Sodium D(-)-α-(3-ethoxycarbonyl-3-methyl-ureido)-benzylpenicillin]	–
6.25 units/ml	6.25 units/ml	25 units/ml	12 units/ml and 12.5 units/ml	400 units/ml	< 0.78 units/ml	100 units/ml	400 units/ml	3.12 units/ml	100 units/ml	6.25 units/ml	100 units/ml	1.56 units/ml	CN(C(=O)N[C@@H](C(=O)N[C@@H]1C(=O)N2[C@@H]1SC(C)(C)[C@@H]2C(=O)O)c1ccccc1)C(=O)C1CCCCC1 [Example 62]	–
1.56 units/ml	3.12 units/ml	12.5 units/ml	6.25 units/ml	200 units/ml	< 0.78 units/ml	50 units/ml	400 units/ml	< 0.78 units/ml	50 units/ml	1.56 units/ml	50 units/ml	< 0.78 units/ml	CN(C(=O)C=Cc1ccccc1)C(=O)N[C@@H](C(=O)N[C@@H]1C(=O)N2[C@@H]1SC(C)(C)[C@@H]2C(=O)O)c1ccccc1 [Example 63, Sodium D(-)-α-(3-cinnamoyl-3-methyl-ureido)-benzylpenicillin]	–
4-20 units/ml	4-20 units/ml	20-100 units/ml	20-100 units/ml	20-100 units/ml	0.8 units/ml	4-20 units/ml	100-500 units/ml	4-20 units/ml	4-20 units/ml	4-20 units/ml	4-20 units/ml	0.8-4 units/ml	CNC(=O)N(C)C(=O)N[C@@H](C(=O)N[C@@H]1C(=O)N2[C@@H]1SC(C)(C)[C@@H]2C(=O)O)c1ccccc1 [Example 110, Sodium D(-)-α-(3-methylaminocarbonyl-3-methyl-ureido)-benzylpenicillin]	–

Compound	MIC (Proteus vulg. 1017)	MIC (Proteus vulg. 3400)	MIC (Psdm. aerug. Walter)	MIC (Psdm. aerug. Bonn)	MIC (Staph. aureus 1777 E)	MIC (Staph. aureus 133)	MIC (Klebsiella 63)	MIC (E. coli A 261)	MIC (E. coli 183/58)	MIC (Klebsiella K 10)	MIC (E. coli C 165)	MIC [1]	MIC (E. coli 14)	other results
CCCCOC(=O)N(C)C(=O)N[C@@H](C(=O)N[C@@H]1C(=O)N2[C@@H]1SC(C)(C)[C@@H]2C(=O)O)c1ccccc1 [Example 98, Sodium D(-)-α-(3-n-butoxycarbonyl-3-methyl-ureido)-benzylpenicillin]	12.5 units/ml	25 units/ml	25 units/ml	12.5 units/ml	200 units/ml	< 0.78 units/ml	400 units/ml	> 400 units/ml	6.25 units/ml	400 units/ml	6.25 units/ml	100 units/ml	3.12 units/ml	MIC (Proteus vulg. 1017; listed as (B) of Example 28): 12.5 units/ml; MIC (Proteus vulg. 3400; listed as (B) of Example 28): 25 units/ml; MIC (Psdm. aerug. Walter; listed as (B) of Example 28): 25 units/ml; MIC (Psdm. aerug. Bonn; listed as (B) of Example 28): 12.5 units/ml; MIC (Staph. aureus 133; listed as (B) of Example 28): < 0.78 units/ml; MIC (E. coli 183/58; listed as (B) of Example 28): 6.25 units/ml; MIC (E. coli C 165; listed as (B) of Example 28): 6.25 units/ml; MIC (E. coli 14; listed as (B) of Example 28): 3.12 units/ml
